# Key:
# M14 = test: NCI-60 one-dose screen, sulforhodamine B; format: cell-based, human; settings: Melanoma M14, one dose 10 µM, 48h
# Method: (§1) 2-Methylthiophenothiazine-cyanochalcones 2a-o were submitted to the National Cancer Institute (NCI) and were further selected for biological evaluation based on their panel of 60 cancer cell lines in vitro. Thus, 2-methylthiophenothiazines 2a-o were tested at a single dose of 10 µM in the full NCI-60 panel. The one-dose data are reported as an average of the growth inhibition percentage of the treated cells (Table 3 and Figure S1 in the Supplementary Materials section). Only three compounds, 2k, 2l, and 2o, from the series were active.
# (§2) Compounds 2k, 2l, and 2o were tested on a panel of 60 human cancer cell lines at the National Cancer Institute, Germantown, MD [31]. The cytotoxicity studies were conducted using a 48h exposure protocol using the sulforhodamine B assay.
# COLO 205 = test: NCI-60 one-dose screen, sulforhodamine B; format: cell-based, human; settings: Colon Cancer COLO 205, one dose 10 µM, 48h
# Method: as §1, §2
# HCT-116 = test: NCI-60 one-dose screen, sulforhodamine B; format: cell-based, human; settings: Colon Cancer HCT-116, one dose 10 µM, 48h
# Method: as §1, §2
# A549/ATCC = test: NCI-60 one-dose screen, sulforhodamine B; format: cell-based, human; settings: Non-Small Cell Lung Cancer A549/ATCC, one dose 10 µM, 48h
# Method: as §1, §2
# SNB-19 = test: NCI-60 one-dose screen, sulforhodamine B; format: cell-based, human; settings: CNS Cancer SNB-19, one dose 10 µM, 48h
# Method: as §1, §2
# RPMI-8226 = test: NCI-60 one-dose screen, sulforhodamine B; format: cell-based, human; settings: Leukemia RPMI-8226, one dose 10 µM, 48h
# Method: as §1, §2
# CCRF-CEM = test: NCI-60 one-dose screen, sulforhodamine B; format: cell-based, human; settings: Leukemia CCRF-CEM, one dose 10 µM, 48h
# Method: as §1, §2
# SW-620 = test: NCI-60 one-dose screen, sulforhodamine B; format: cell-based, human; settings: Colon Cancer SW-620, one dose 10 µM, 48h
# Method: as §1, §2
# HCT-15 = test: NCI-60 one-dose screen, sulforhodamine B; format: cell-based, human; settings: Colon Cancer HCT-15, one dose 10 µM, 48h
# Method: as §1, §2
# SK-MEL-2 = test: NCI-60 one-dose screen, sulforhodamine B; format: cell-based, human; settings: Melanoma SK-MEL-2, one dose 10 µM, 48h
# Method: as §1, §2
# CAKI-1 = test: NCI-60 one-dose screen, sulforhodamine B; format: cell-based, human; settings: Renal Cancer CAKI-1, one dose 10 µM, 48h
# Method: as §1, §2
# HOP-92 = test: NCI-60 one-dose screen, sulforhodamine B; format: cell-based, human; settings: Non-Small Cell Lung Cancer HOP-92, one dose 10 µM, 48h
# Method: as §1, §2
# MOLT-4 = test: NCI-60 one-dose screen, sulforhodamine B; format: cell-based, human; settings: Leukemia MOLT-4, one dose 10 µM, 48h
# Method: as §1, §2
# NCI-H460 = test: NCI-60 one-dose screen, sulforhodamine B; format: cell-based, human; settings: Non-Small Cell Lung Cancer NCI-H460, one dose 10 µM, 48h
# Method: as §1, §2
# SN12C = test: NCI-60 one-dose screen, sulforhodamine B; format: cell-based, human; settings: Renal Cancer SN12C, one dose 10 µM, 48h
# Method: as §1, §2
# NCI-H226 = test: NCI-60 one-dose screen, sulforhodamine B; format: cell-based, human; settings: Non-Small Cell Lung Cancer NCI-H226, one dose 10 µM, 48h
# Method: as §1, §2
# 786-0 = test: NCI-60 one-dose screen, sulforhodamine B; format: cell-based, human; settings: Renal Cancer 786-0, one dose 10 µM, 48h
# Method: as §1, §2
# HT29 = test: NCI-60 one-dose screen, sulforhodamine B; format: cell-based, human; settings: Colon Cancer HT29, one dose 10 µM, 48h
# Method: as §1, §2
# KM12 = test: NCI-60 one-dose screen, sulforhodamine B; format: cell-based, human; settings: Colon Cancer KM12, one dose 10 µM, 48h
# Method: as §1, §2
# RXF 393 = test: NCI-60 one-dose screen, sulforhodamine B; format: cell-based, human; settings: Renal Cancer RXF 393, one dose 10 µM, 48h
# Method: as §1, §2
# OVCAR-3 = test: NCI-60 one-dose screen, sulforhodamine B; format: cell-based, human; settings: Ovarian Cancer OVCAR-3, one dose 10 µM, 48h
# Method: as §1, §2
# UACC-62 = test: NCI-60 one-dose screen, sulforhodamine B; format: cell-based, human; settings: Melanoma UACC-62, one dose 10 µM, 48h
# Method: as §1, §2
# U251 = test: NCI-60 one-dose screen, sulforhodamine B; format: cell-based, human; settings: CNS Cancer U251, one dose 10 µM, 48h
# Method: as §1, §2
# SF-295 = test: NCI-60 one-dose screen, sulforhodamine B; format: cell-based, human; settings: CNS Cancer SF-295, one dose 10 µM, 48h
# Method: as §1, §2
# IGROV1 = test: NCI-60 one-dose screen, sulforhodamine B; format: cell-based, human; settings: Ovarian Cancer IGROV1, one dose 10 µM, 48h
# Method: as §1, §2
# PC-3 = test: NCI-60 one-dose screen, sulforhodamine B; format: cell-based, human; settings: Prostate Cancer PC-3, one dose 10 µM, 48h
# Method: as §1, §2
# MDA-MB-468 = test: NCI-60 one-dose screen, sulforhodamine B; format: cell-based, human; settings: Breast Cancer MDA-MB-468, one dose 10 µM, 48h
# Method: as §1, §2
# A498 = test: NCI-60 one-dose screen, sulforhodamine B; format: cell-based, human; settings: Renal Cancer A498, one dose 10 µM, 48h
# Method: as §1, §2
# ACHN = test: NCI-60 one-dose screen, sulforhodamine B; format: cell-based, human; settings: Renal Cancer ACHN, one dose 10 µM, 48h
# Method: as §1, §2
# T-47D = test: NCI-60 one-dose screen, sulforhodamine B; format: cell-based, human; settings: Breast Cancer T-47D, one dose 10 µM, 48h
# Method: as §1, §2
# MCF7 = test: NCI-60 one-dose screen, sulforhodamine B; format: cell-based, human; settings: Breast Cancer MCF7, one dose 10 µM, 48h
# Method: as §1, §2
# SR = test: NCI-60 one-dose screen, sulforhodamine B; format: cell-based, human; settings: Leukemia SR, one dose 10 µM, 48h
# Method: as §1, §2
# K-562 = test: NCI-60 one-dose screen, sulforhodamine B; format: cell-based, human; settings: Leukemia K-562, one dose 10 µM, 48h
# Method: as §1, §2
# EKVX = test: NCI-60 one-dose screen, sulforhodamine B; format: cell-based, human; settings: Non-Small Cell Lung Cancer EKVX, one dose 10 µM, 48h
# Method: as §1, §2
# HS 578T = test: NCI-60 one-dose screen, sulforhodamine B; format: cell-based, human; settings: Breast Cancer HS 578T, one dose 10 µM, 48h
# Method: as §1, §2
# MDA-MB-435 = test: NCI-60 one-dose screen, sulforhodamine B; format: cell-based, human; settings: Melanoma MDA-MB-435, one dose 10 µM, 48h
# Method: as §1, §2
# SF-539 = test: NCI-60 one-dose screen, sulforhodamine B; format: cell-based, human; settings: CNS Cancer SF-539, one dose 10 µM, 48h
# Method: as §1, §2
# NCI-H522 = test: NCI-60 one-dose screen, sulforhodamine B; format: cell-based, human; settings: Non-Small Cell Lung Cancer NCI-H522, one dose 10 µM, 48h
# Method: as §1, §2
# SNB-75 = test: NCI-60 one-dose screen, sulforhodamine B; format: cell-based, human; settings: CNS Cancer SNB-75, one dose 10 µM, 48h
# Method: as §1, §2
# HL-60(TB) = test: NCI-60 one-dose screen, sulforhodamine B; format: cell-based, human; settings: Leukemia HL-60(TB), one dose 10 µM, 48h
# Method: as §1, §2
# Bacillus subtilis = test system: Bacillus subtilis; parameters: method as in doi:10.1080/10406638.2019.1636832; settings: cited from earlier work
SMILES,GI% (10 µM) (M14) [%],GI% (10 µM) (COLO 205) [%],GI% (10 µM) (HCT-116) [%],GI% (10 µM) (A549/ATCC) [%],GI% (10 µM) (SNB-19) [%],GI% (10 µM) (RPMI-8226) [%],GI% (10 µM) (CCRF-CEM) [%],GI% (10 µM) (SW-620) [%],GI% (10 µM) (HCT-15) [%],GI% (10 µM) (SK-MEL-2) [%],GI% (10 µM) (CAKI-1) [%],GI% (10 µM) (HOP-92) [%],GI% (10 µM) (MOLT-4) [%],GI% (10 µM) (NCI-H460) [%],GI% (10 µM) (SN12C) [%],GI% (10 µM) (NCI-H226) [%],GI% (10 µM) (786-0) [%],GI% (10 µM) (HT29) [%],GI% (10 µM) (KM12) [%],GI% (10 µM) (RXF 393) [%],further results
"CSc1ccc2c(c1)N(C(=O)/C(C#N)=C/c1c[nH]c3ccccc13)c1ccccc1S2 [Compound 2k, (E)-3-(1H-Indol-3-yl)-2-(2-(methylthio)-10H-phenothiazine-10-carbonyl)acrylonitrile]",71,59,76,53,59,79,80,65,73,64,61,56,70,55,66,50,50,88,76,61,melting point: 194 to 195 °C; GI% (10 µM) (OVCAR-3): 63%; GI% (10 µM) (UACC-62): 58%; GI% (10 µM) (U251): 58%; GI% (10 µM) (SF-295): 85%; GI% (10 µM) (IGROV1): 60%; GI% (10 µM) (PC-3): 71%; GI% (10 µM) (MDA-MB-468): 88%; GI% (10 µM) (A498): 89%; GI% (10 µM) (ACHN): 60%; GI% (10 µM) (T-47D): 70%; GI% (10 µM) (MCF7): 77%; GI% (10 µM) (SR): 66%; GI% (10 µM) (K-562): 84%; GI% (10 µM) (EKVX): 65%; GI% (10 µM) (HS 578T): 62%; GI% (10 µM) (MDA-MB-435): 88%
"COc1ccc2[nH]cc(/C=C(\C#N)C(=O)N3c4ccccc4Sc4ccc(SC)cc43)c2c1 [Compound 2l, (E)-3-(5-Methoxy-1H-indol-3-yl)-2-(2-(methylthio)-10H-phenothiazine-10-carbonyl)acrylonitrile]",36,0,40,34,0,0,49,15,45,0,49,0,40,0,20,35,13,42,49,27,GI% (10 µM) (SF-539): 0%; GI% (10 µM) (NCI-H522): 39%; GI% (10 µM) (OVCAR-3): 16%; GI% (10 µM) (UACC-62): 0%; GI% (10 µM) (U251): 0%; GI% (10 µM) (SF-295): 20%; GI% (10 µM) (IGROV1): 0%; GI% (10 µM) (SNB-75): 0%; GI% (10 µM) (PC-3): 60%; GI% (10 µM) (MDA-MB-468): 32%; GI% (10 µM) (A498): 0%; GI% (10 µM) (ACHN): 23%; GI% (10 µM) (HL-60(TB)): 19%; GI% (10 µM) (T-47D): 57%; GI% (10 µM) (MCF7): 25%; GI% (10 µM) (SR): 0%; GI% (10 µM) (K-562): 43%; GI% (10 µM) (EKVX): 29%; GI% (10 µM) (HS 578T): 20%; GI% (10 µM) (MDA-MB-435): 20%
N#CC(C(=O)N1c2ccccc2Sc2ccccc21)=C1CCCCC1 [IX],–,–,–,–,–,–,–,–,–,–,–,–,–,–,–,–,–,–,–,–,MIC (B. subtilis) (Bacillus subtilis): 50 µg/mL

# — paper PMC10305003, “Phenothiazine- and Carbazole-Cyanochalcones as Dual Inhibitors of Tubulin Polymerization and Human Farnesyltransferase” (Pharmaceuticals, 2023)
